Measured values from ChEMBL document CHEMBL1201862, “PubChem BioAssay data set” (2004).
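1) Cells in 96-well plates. 2) Compound, 48 h, 5 concentrations. 3) Linear interpolation between surrounding doses. 4) Unreached endpoint = highest concentration. At the GI50, growth is halved.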 Calls of active or inactive are those of the source. Rule as the data show it: active = GI50 up to about 1.1 µM and inactive = higher.

Legend:
Assay in all cases: growth of human tumour cells (NCI), 48 h
SN12C = tested on: SN12C
NCI-H23 = tested on: NCI-H23
A549 = tested on: A549
UO-31 = tested on: UO-31
OVCAR-5 = tested on: OVCAR-5
786-0 = tested on: 786-0
HOP-62 = tested on: HOP-62
PC-3 = tested on: PC-3
SNB-75 = tested on: SNB-75
UACC-257 = tested on: UACC-257
SR = tested on: SR
MDA-MB-435 = tested on: MDA-MB-435
OVCAR-8 = tested on: OVCAR-8
RPMI-8226 = tested on: RPMI-8226
OVCAR-4 = tested on: OVCAR-4
DU-145 = tested on: DU-145
SNB-19 = tested on: SNB-19
HCT-15 = tested on: HCT-15
A498 = tested on: A498
HT-29 = tested on: HT-29
SK-MEL-5 = tested on: SK-MEL-5
EKVX = tested on: EKVX
SF-268 = tested on: SF-268
TK-10 = tested on: TK-10
UACC-62 = tested on: UACC-62
CCRF-CEM = tested on: CCRF-CEM
U-251 = tested on: U-251
Hs-578T = tested on: Hs-578T
BT-549 = tested on: BT-549
ACHN = tested on: ACHN
KM12 = tested on: KM12
MDA-MB-231 = tested on: MDA-MB-231
LOX IMVI = tested on: LOX IMVI
OVCAR-3 = tested on: OVCAR-3
M14 = tested on: M14
CAKI-1 = tested on: CAKI-1
T47D = tested on: T47D
COLO 205 = tested on: COLO 205
SK-MEL-2 = tested on: SK-MEL-2
HOP-92 = tested on: HOP-92
SK-OV-3 = tested on: SK-OV-3
SW-620 = tested on: SW-620
MDA-N = tested on: MDA-N
SF-295 = tested on: SF-295
Malme-3M = tested on: Malme-3M
NCI/ADR-RES = tested on: NCI/ADR-RES
SK-MEL-28 = tested on: SK-MEL-28
K562 = tested on: K562
HCT-116 = tested on: HCT-116
RXF 393 = tested on: RXF 393
IGROV-1 = tested on: IGROV-1
MOLT-4 = tested on: MOLT-4
NCI-H522 = tested on: NCI-H522
NCI-H226 = tested on: NCI-H226
SF-539 = tested on: SF-539
HL-60 = tested on: HL-60
NCI-H460 = tested on: NCI-H460

For O=S(=O)(O)c1ccc(/N=N\c2c(O)ccc3cc(Br)ccc23)cc1, the GI50 (SN12C) was > 100 µM (inactive), the GI50 (NCI-H23) was > 100 µM (inactive) and the GI50 (A549) was > 100 µM (inactive). For the same compound, the GI50 (UO-31) was > 100 µM (inactive), the GI50 (OVCAR-5) was > 100 µM (inactive) and the GI50 (786-0) was > 100 µM (inactive). For the same compound, the GI50 (HOP-62) was > 100 µM (inactive), the GI50 (PC-3) was > 100 µM (inactive) and the GI50 (SNB-75) was > 100 µM (inactive). For the same compound, the GI50 (UACC-257) was > 100 µM (inactive), the GI50 (SR) was > 100 µM (inactive) and the GI50 (MDA-MB-435) was > 100 µM (inactive). For the same compound, the GI50 (OVCAR-8) was > 100 µM (inactive), the GI50 (RPMI-8226) was > 100 µM (inactive) and the GI50 (OVCAR-4) was > 100 µM (inactive). The GI50 (DU-145) was > 100 µM (inactive), the GI50 (SNB-19) was > 100 µM (inactive) and the GI50 (HCT-15) was > 100 µM. For the same compound, the GI50 (A498) was > 100 µM (inactive), the GI50 (HT-29) was > 100 µM (inactive) and the GI50 (SK-MEL-5) was > 100 µM (inactive). The GI50 (EKVX) was > 100 µM (inactive), the GI50 (SF-268) was > 100 µM (inactive) and the GI50 (TK-10) was > 100 µM (inactive). For the same compound, the GI50 (UACC-62) was > 100 µM (inactive), the GI50 (CCRF-CEM) was > 100 µM (inactive) and the GI50 (U-251) was > 100 µM (inactive). For the same compound, the GI50 (Hs-578T) was > 100 µM (inactive), the GI50 (BT-549) was > 100 µM (inactive) and the GI50 (ACHN) was > 100 µM (inactive). The GI50 (KM12) was > 100 µM (inactive), the GI50 (MDA-MB-231) was > 100 µM (inactive) and the GI50 (LOX IMVI) was > 100 µM (inactive). For the same compound, the GI50 (OVCAR-3) was > 100 µM (inactive), the GI50 (M14) was > 100 µM (inactive) and the GI50 (CAKI-1) was > 100 µM (inactive). The GI50 (T47D) was > 100 µM (inactive), the GI50 (COLO 205) was > 100 µM (inactive) and the GI50 (SK-MEL-2) was > 100 µM (inactive). For the same compound, the GI50 (HOP-92) was > 100 µM (inactive), the GI50 (SK-OV-3) was > 100 µM (inactive) and the GI50 (SW-620) was > 100 µM (inactive). For the same compound, the GI50 (MDA-N) was > 100 µM (inactive), the GI50 (SF-295) was > 100 µM (inactive) and the GI50 (Malme-3M) was > 100 µM (inactive). The GI50 (NCI/ADR-RES) was > 100 µM (inactive), the GI50 (SK-MEL-28) was > 100 µM (inactive) and the GI50 (K562) was > 10 µM (inactive). For the same compound, the GI50 (HCT-116) was > 100 µM (inactive), the GI50 (RXF 393) was > 100 µM (inactive) and the GI50 (IGROV-1) was > 100 µM (inactive). The GI50 (MOLT-4) was > 100 µM (inactive) and the GI50 (NCI-H522) was > 100 µM (inactive).
With CNc1nc(OC)c2c(n1)n(C)c[n+]2C [HETEROMINE B] the GI50 (SN12C) was > 100 µM (inactive), the GI50 (NCI-H23) was > 100 µM (inactive) and the GI50 (NCI-H226) was > 100 µM (inactive). For the same compound, the GI50 (A549) was 73.8 µM (inactive), the GI50 (UO-31) was > 100 µM (inactive) and the GI50 (OVCAR-5) was > 100 µM (inactive). The GI50 (786-0) was > 100 µM (inactive), the GI50 (HOP-62) was > 100 µM (inactive) and the GI50 (PC-3) was > 100 µM (inactive). The GI50 (SNB-75) was > 100 µM (inactive), the GI50 (UACC-257) was > 100 µM (inactive) and the GI50 (MDA-MB-435) was > 100 µM (inactive). The GI50 (OVCAR-8) was > 100 µM (inactive), the GI50 (RPMI-8226) was > 100 µM (inactive) and the GI50 (DU-145) was > 100 µM (inactive). The GI50 (SNB-19) was > 100 µM (inactive), the GI50 (HCT-15) was > 100 µM and the GI50 (A498) was > 100 µM (inactive). The GI50 (HT-29) was > 100 µM (inactive), the GI50 (SK-MEL-5) was > 100 µM (inactive) and the GI50 (EKVX) was > 100 µM (inactive). The GI50 (SF-268) was > 100 µM (inactive), the GI50 (TK-10) was > 100 µM (inactive) and the GI50 (UACC-62) was > 100 µM (inactive). For the same compound, the GI50 (CCRF-CEM) was > 100 µM (inactive), the GI50 (U-251) was 45.7 µM (inactive) and the GI50 (Hs-578T) was 31.6 µM (inactive). The GI50 (SF-539) was > 100 µM (inactive), the GI50 (BT-549) was > 100 µM (inactive) and the GI50 (ACHN) was > 100 µM (inactive). The GI50 (KM12) was > 100 µM (inactive), the GI50 (HL-60) was > 100 µM (inactive) and the GI50 (MDA-MB-231) was > 100 µM (inactive). For the same compound, the GI50 (LOX IMVI) was > 100 µM (inactive), the GI50 (OVCAR-3) was 62.7 µM (inactive) and the GI50 (M14) was > 100 µM (inactive). For the same compound, the GI50 (NCI-H460) was > 100 µM (inactive), the GI50 (CAKI-1) was > 100 µM (inactive) and the GI50 (T47D) was > 100 µM (inactive). The GI50 (COLO 205) was > 100 µM (inactive), the GI50 (SK-MEL-2) was 53.3 µM (inactive) and the GI50 (HOP-92) was 41.2 µM (inactive). For the same compound, the GI50 (SK-OV-3) was > 100 µM (inactive), the GI50 (SW-620) was > 100 µM (inactive) and the GI50 (MDA-N) was > 100 µM (inactive). For the same compound, the GI50 (SF-295) was > 100 µM (inactive), the GI50 (Malme-3M) was > 100 µM (inactive) and the GI50 (NCI/ADR-RES) was > 100 µM (inactive). For the same compound, the GI50 (SK-MEL-28) was > 100 µM (inactive), the GI50 (K562) was > 100 µM (inactive) and the GI50 (HCT-116) was > 100 µM (inactive). The GI50 (RXF 393) was > 100 µM (inactive), the GI50 (IGROV-1) was > 100 µM (inactive) and the GI50 (MOLT-4) was > 100 µM (inactive). For the same compound, the GI50 (NCI-H522) was 31.7 µM (inactive).
